Measurements: patent US4999354A, “Imidazoquinoxaline compounds and their preparation and use” (A/S Ferrosan, priority 1987, dated 1991)

Test system: benzodiazepine receptors
Test: in vivo displacement of 3H-flunitrazepam from brain benzodiazepine receptors in mice
Design: species or system mice (female, NMR)
Conditions: test substance intraperitoneally 15 min before 3H-FNM i.v., forebrains taken 20 min after 3H-FNM
Experimental: The ED50 value represents the dose (mg/kg) of a test substance which causes the specific binding of flunitrazepam to benzodiazepine receptors in a living brain to be reduced to 50% of the control value.
Such an in vivo test is carried out as follows:
Results. The ED50 value is determined from dose response curves.

Q: With `CC(C)n1c(=O)c2c(-c3nc(C4CC4)no3)ncn2c2ccccc21` [Compound 6, 3-(3-cyclopropyl-1,2,4-oxadiazol-5-yl)-4,5-dihydro-5-isopropyl-4-oxo-imidazo[1,5-a] quinoxaline] as the molecule, how does the “ED50 (dose that inhibits 50% of specific 3H-flunitrazepam binding to brain benzodiazepine receptors)” value read?
A: 0.28 mg/kg
